Data as given in PubChem BioAssay (NCI).
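The compound was tested at five concentrations on cells cultured in 96-well plates, with a 48-hour exposure period. TGI is the concentration that stops growth completely.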

Tests used:
Assay in all cases: NCI-60 cell line screen, 48 h
[1] = tested on: SW-620 colon
[2] = tested on: LOX IMVI melanoma
[3] = tested on: OVCAR-8 ovarian
[4] = tested on: HT29 colon
[5] = tested on: HS 578T breast
[6] = tested on: MALME-3M melanoma
[7] = tested on: MCF7 breast
[8] = tested on: CCRF-CEM leukemia
[9] = tested on: MDA-N
[10] = tested on: SNB-19 CNS
[11] = tested on: IGROV1 ovarian
[12] = tested on: EKVX NSCLC
[13] = tested on: A498 renal
[14] = tested on: NCI/ADR-RES ovarian
[15] = tested on: HCT-15 colon
[16] = tested on: COLO 205 colon
[17] = tested on: NCI-H460 lung
[18] = tested on: SF-295 CNS
[19] = tested on: OVCAR-4 ovarian
[20] = tested on: ACHN renal
[21] = tested on: HCC-2998 colon
[22] = tested on: OVCAR-5 ovarian
[23] = tested on: PC-3 prostate
[24] = tested on: KM12 colon
[25] = tested on: BT-549 breast
[26] = tested on: MDA-MB-231 breast
[27] = tested on: UACC-257 melanoma
[28] = tested on: SK-MEL-2 melanoma
[29] = tested on: T-47D breast
[30] = tested on: NCI-H522 lung
[31] = tested on: HOP-62 NSCLC
[32] = tested on: RPMI-8226 leukemia
[33] = tested on: SK-MEL-5 melanoma
[34] = tested on: SF-539 CNS
[35] = tested on: U251 CNS
[36] = tested on: A549 NSCLC
[37] = tested on: M14 melanoma
[38] = tested on: SF-268 CNS
[39] = tested on: NCI-H23 lung
[40] = tested on: HL-60(TB) leukemia
[41] = tested on: MDA-MB-435
[42] = tested on: HCT-116 colon
[43] = tested on: SK-OV-3 ovarian
[44] = tested on: UACC-62 melanoma
[45] = tested on: MOLT-4 leukemia
[46] = tested on: RXF 393 renal
[47] = tested on: CAKI-1 renal
[48] = tested on: SK-MEL-28 melanoma
[49] = tested on: HOP-92 NSCLC
[50] = tested on: DU-145 prostate
[51] = tested on: 786-0 renal
[52] = tested on: TK-10 renal
[53] = tested on: SN12C renal
[54] = tested on: OVCAR-3 ovarian
[55] = tested on: NCI-H226 lung
[56] = tested on: K-562 leukemia
[57] = tested on: SNB-75 CNS
[58] = tested on: SR leukemia
[59] = tested on: UO-31 renal

**Q.** What does the source list for `OC[C@@H](O)[C@H](O)[C@@H](O)/C=N/Nc1ccc(Cl)nn1`?
**A.** TGI [1]: > 100 µM; TGI [2]: > 100 µM; TGI [3]: > 100 µM; TGI [4]: > 100 µM; TGI [5]: > 100 µM; TGI [6]: > 100 µM; TGI [7]: > 100 µM; TGI [8]: > 100 µM; TGI [9]: > 100 µM; TGI [10]: > 100 µM; TGI [11]: > 100 µM; TGI [12]: > 100 µM; TGI [13]: > 100 µM; TGI [14]: > 100 µM; TGI [15]: > 100 µM; TGI [16]: > 100 µM; TGI [17]: > 100 µM; TGI [18]: > 100 µM; TGI [19]: > 100 µM; TGI [20]: > 100 µM; TGI [21]: > 100 µM; TGI [22]: > 100 µM; TGI [23]: > 100 µM; TGI [24]: > 100 µM; TGI [25]: > 100 µM; TGI [26]: > 100 µM; TGI [27]: > 100 µM; TGI [28]: > 100 µM; TGI [29]: > 100 µM; TGI [30]: > 100 µM; TGI [31]: > 100 µM; TGI [32]: > 100 µM; TGI [33]: > 100 µM; TGI [34]: > 100 µM; TGI [35]: > 100 µM; TGI [36]: > 100 µM; TGI [37]: > 100 µM; TGI [38]: > 100 µM; TGI [39]: > 100 µM; TGI [40]: > 100 µM; TGI [41]: > 100 µM; TGI [42]: > 100 µM; TGI [43]: > 100 µM; TGI [44]: > 100 µM; TGI [45]: > 100 µM; TGI [46]: > 100 µM; TGI [47]: > 100 µM; TGI [48]: > 100 µM; TGI [49]: > 100 µM; TGI [50]: > 100 µM; TGI [51]: > 100 µM; TGI [52]: > 100 µM; TGI [53]: > 100 µM; TGI [54]: > 100 µM

**Q.** What does the source list for `Cc1nn(C(=O)c2ccncc2)c2c1C(c1ccc([N+](=O)[O-])cc1)SC(N)=N2` (centres undefined)?
**A.** TGI [1]: > 100 µM; TGI [2]: > 100 µM; TGI [3]: > 100 µM; TGI [55]: > 100 µM; TGI [4]: > 100 µM; TGI [5]: > 100 µM; TGI [56]: > 100 µM; TGI [6]: > 100 µM; TGI [7]: > 100 µM; TGI [8]: > 100 µM; TGI [9]: > 100 µM; TGI [10]: > 100 µM; TGI [11]: > 100 µM; TGI [57]: > 100 µM; TGI [12]: > 100 µM; TGI [13]: > 100 µM; TGI [14]: > 100 µM; TGI [15]: > 100 µM; TGI [16]: > 100 µM; TGI [17]: > 100 µM; TGI [18]: > 100 µM; TGI [19]: > 100 µM; TGI [20]: > 100 µM; TGI [22]: > 100 µM; TGI [23]: > 100 µM; TGI [24]: > 100 µM; TGI [25]: > 100 µM; TGI [26]: > 100 µM; TGI [27]: > 100 µM; TGI [28]: > 100 µM; TGI [29]: > 100 µM; TGI [58]: > 100 µM; TGI [31]: > 100 µM; TGI [32]: > 100 µM; TGI [33]: > 100 µM; TGI [34]: > 100 µM; TGI [35]: > 100 µM; TGI [36]: > 100 µM; TGI [37]: > 100 µM; TGI [38]: > 100 µM; TGI [39]: > 100 µM; TGI [40]: > 100 µM; TGI [41]: > 100 µM; TGI [42]: > 100 µM; TGI [43]: > 100 µM; TGI [44]: > 100 µM; TGI [45]: > 100 µM; TGI [46]: > 100 µM; TGI [48]: > 100 µM; TGI [49]: > 100 µM; TGI [50]: > 100 µM; TGI [51]: > 100 µM; TGI [52]: > 100 µM; TGI [59]: > 100 µM; TGI [53]: > 100 µM; TGI [54]: > 100 µM

**Q.** Which results are given for `N#CC(C(=O)O)C(c1c(Cl)cccc1Cl)C(C#N)C(=O)O` (centres undefined)?
**A.** TGI [1]: > 100 µM; TGI [2]: > 100 µM; TGI [3]: > 100 µM; TGI [55]: > 100 µM; TGI [4]: > 100 µM; TGI [5]: > 100 µM; TGI [56]: > 100 µM; TGI [6]: > 100 µM; TGI [7]: > 100 µM; TGI [9]: > 100 µM; TGI [10]: > 100 µM; TGI [11]: > 100 µM; TGI [12]: > 100 µM; TGI [13]: > 100 µM; TGI [14]: > 100 µM; TGI [15]: > 100 µM; TGI [16]: > 100 µM; TGI [17]: > 100 µM; TGI [18]: > 100 µM; TGI [19]: > 100 µM; TGI [20]: > 100 µM; TGI [22]: > 100 µM; TGI [23]: > 100 µM; TGI [24]: > 100 µM; TGI [25]: > 100 µM; TGI [26]: > 100 µM; TGI [27]: > 100 µM; TGI [28]: > 100 µM; TGI [29]: > 100 µM; TGI [30]: > 100 µM; TGI [58]: > 100 µM; TGI [31]: > 100 µM; TGI [32]: > 100 µM; TGI [33]: > 100 µM; TGI [34]: > 100 µM; TGI [35]: > 100 µM; TGI [36]: > 100 µM; TGI [37]: > 100 µM; TGI [38]: > 100 µM; TGI [39]: > 100 µM; TGI [40]: > 100 µM; TGI [41]: > 100 µM; TGI [42]: > 100 µM; TGI [43]: > 100 µM; TGI [44]: > 100 µM; TGI [45]: > 100 µM; TGI [47]: > 100 µM; TGI [48]: > 100 µM; TGI [49]: > 100 µM; TGI [50]: > 100 µM; TGI [51]: > 100 µM; TGI [52]: > 100 µM; TGI [59]: > 100 µM; TGI [53]: > 100 µM; TGI [54]: > 100 µM

**Q.** For `S=C(S)N1CCN(c2ccccc2)CC1`, which TGI [1] is on record?
**A.** > 100 µM

**Q.** What about the TGI [2] of the same compound?
**A.** > 100 µM

**Q.** And the TGI [3]?
**A.** > 100 µM

**Q.** And the TGI [4]?
**A.** > 100 µM

**Q.** What about the TGI [5] of the same compound?
**A.** > 100 µM

**Q.** And the TGI [56]?
**A.** > 100 µM

**Q.** What about the TGI [6] of the same compound?
**A.** > 100 µM

**Q.** What about the TGI [7] of the same compound?
**A.** > 100 µM

**Q.** What about the TGI [9] of the same compound?
**A.** > 100 µM

**Q.** What about the TGI [10] of the same compound?
**A.** > 100 µM

**Q.** What about the TGI [11] of the same compound?
**A.** > 100 µM

**Q.** And the TGI [57]?
**A.** > 100 µM

**Q.** What about the TGI [12] of the same compound?
**A.** > 100 µM

**Q.** What about the TGI [13] of the same compound?
**A.** > 100 µM

**Q.** What about the TGI [14] of the same compound?
**A.** > 100 µM

**Q.** And the TGI [15]?
**A.** > 100 µM

**Q.** What about the TGI [16] of the same compound?
**A.** > 100 µM

**Q.** And the TGI [18]?
**A.** > 100 µM

**Q.** And the TGI [20]?
**A.** > 100 µM

**Q.** What about the TGI [21] of the same compound?
**A.** > 100 µM

**Q.** And the TGI [22]?
**A.** > 100 µM

**Q.** And the TGI [23]?
**A.** > 100 µM

**Q.** And the TGI [24]?
**A.** > 100 µM

**Q.** What about the TGI [25] of the same compound?
**A.** > 100 µM

**Q.** And the TGI [26]?
**A.** > 100 µM

**Q.** And the TGI [27]?
**A.** > 100 µM

**Q.** What about the TGI [28] of the same compound?
**A.** > 100 µM

**Q.** What about the TGI [29] of the same compound?
**A.** > 100 µM

**Q.** What about the TGI [30] of the same compound?
**A.** > 100 µM

**Q.** What about the TGI [31] of the same compound?
**A.** > 100 µM

**Q.** And the TGI [32]?
**A.** 77.3 µM

**Q.** And the TGI [33]?
**A.** > 100 µM

**Q.** And the TGI [34]?
**A.** > 100 µM

**Q.** What about the TGI [35] of the same compound?
**A.** > 100 µM

**Q.** And the TGI [36]?
**A.** > 100 µM

**Q.** What about the TGI [37] of the same compound?
**A.** > 100 µM

**Q.** And the TGI [38]?
**A.** > 100 µM

**Q.** And the TGI [40]?
**A.** 64.4 µM

**Q.** What about the TGI [41] of the same compound?
**A.** > 100 µM

**Q.** What about the TGI [42] of the same compound?
**A.** > 100 µM

**Q.** What about the TGI [46] of the same compound?
**A.** > 100 µM

**Q.** What about the TGI [47] of the same compound?
**A.** > 100 µM

**Q.** And the TGI [48]?
**A.** > 100 µM

**Q.** And the TGI [49]?
**A.** > 100 µM

**Q.** What about the TGI [50] of the same compound?
**A.** > 100 µM

**Q.** What about the TGI [51] of the same compound?
**A.** > 100 µM

**Q.** And the TGI [52]?
**A.** > 100 µM

**Q.** What about the TGI [53] of the same compound?
**A.** > 100 µM

**Q.** What about the TGI [54] of the same compound?
**A.** > 100 µM
